In patent US10640457B2, “Histone acetyltransferase activators and uses thereof” (The Trustees of Columbia University in the City of New York, priority 2009, dated 2020):
Several values for one entry are separate records, joined by “and”; a condition that tells them apart may be missing. Equal values may be shown once. Entries after “also recorded” stand apart in the source; their conditions may differ.

Columns and labels:
HDAC8 = target: T1, HDAC8 (Homo sapiens, UniProt Q9BY41); assay: HDAC8 fluorogenic activity assay; settings: for % Activity: Repeat1/Repeat2, listed as OA2
T1 sequence (Q9BY41 1-377): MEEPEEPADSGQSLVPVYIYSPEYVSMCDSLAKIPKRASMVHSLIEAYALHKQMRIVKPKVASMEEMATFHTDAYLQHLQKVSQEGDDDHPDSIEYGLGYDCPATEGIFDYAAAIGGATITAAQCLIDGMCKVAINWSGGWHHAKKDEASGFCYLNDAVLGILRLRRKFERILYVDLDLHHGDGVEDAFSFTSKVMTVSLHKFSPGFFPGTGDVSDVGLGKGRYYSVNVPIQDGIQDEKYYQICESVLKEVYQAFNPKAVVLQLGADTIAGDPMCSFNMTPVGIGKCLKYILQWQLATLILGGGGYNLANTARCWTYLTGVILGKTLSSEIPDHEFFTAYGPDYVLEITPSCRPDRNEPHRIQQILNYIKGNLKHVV

acetylated H4 = assay: Western blot of hippocampal acetylated H4 after fear conditioning (TSA); format: in vivo, mice
Description: We will also test if defects seen in APP/PS1 mice, compared to WT littermates, are due to epigenetic effects. […] (each herein incorporated by reference in its entirety). Acetylation of H4 in hippocampus from WT and APP/PS1 animals was measured. Vehicle control solution was administered i.p. 2 hrs before FC training. 1 hr after contextual FC, the APP/PS1 and WT mice were euthanized and hippocampi were extracted. […] Whether HDAC inhibition might rescue the histone 4 acetylation levels defect observed in APP/PS1 mice was also tested. Injection of TSA (2 μg/g body weight; i.p) 2 hours prior to contextual fear conditioning enhanced H4 acetylation of APP/PS1 mice (FIG. 22). Without being bound by theory, AD is likely to be a disease with an epigenetic motif and HDAC inhibitors can elevate decreased levels of histone 4 in an AD mouse model.
APP/PS1 mice display a reduced endogenous level of histone 4 acetylation in response to a learning task. Given that HDAC inhibitors are known to acetylate other molecules besides histones [B49] […] We measured acetylation of H4 in hippocampus from 3 to 4 month old wild-type (WT) and APP/PS1 animals, after training for fear conditioning. […]

APP/PS1 mice = assay: Contextual and cued fear conditioning in APP/PS1 mice (TSA); format: in vivo
Description: Following experiments on acute effect of TSA in synaptic dysfunction, we determined if TSA is beneficial against impairment of contextual FC in APP/PS1 mice[A17]. 4 month-old mice were divided into 4 groups: APP/PS1 with TSA, APP/PS1 with vehicle, WT with TSA and WT with vehicle. TSA and vehicle control solution were administered i.p. at a concentration of 2 μg/g body weight. We found a similar shock threshold among the various groups of mice. Then, mice were trained to associate neutral stimuli with an aversive one. They were placed in a novel context (FC box), exposed to a white noise cue paired with a mild foot shock, and injected with TSA 2 hrs before training Fear learning was assessed 24 hrs later by measuring freezing behavior—the absence of all movement except for that necessitated by breathing—in response to representation of the context. We found no difference in the freezing behavior among the 4 groups of mice during the training phase of the FC. 24 hrs later, freezing behavior was decreased in vehicle-treated APP/PS1 mice compared to vehicle-treated WT littermates in analyzing contextual learning (FIG. 18).
HDAC inhibition rescues the defect in associative memory in APP/PS1 mice. Similar to humans affected by AD [B51] […] (herein incorporated by reference in its entirety). In rodents, associative learning can be assessed by contextual fear conditioning. This behavioral task, which is based on the association of a neutral stimulus with an aversive one, is dependent on hippocampal function [B52] (herein incorporated by reference in its entirety). Thus, following experiments on acute effect of TSA in synaptic dysfunction, we determined if TSA is beneficial against impairment of contextual fear conditioning in 3-4 month old APP/PS1 mice [B14] (herein incorporated by reference in its entirety). Animals were divided into 4 groups: APP/PS1 with TSA, APP/PS1 with vehicle, WT with TSA and WT with vehicle. TSA and vehicle control solution were administered i.p. at a concentration of 2 mg/Kg body weight. We found a similar shock threshold among the various groups of mice. Then, mice were trained to associate neutral stimuli with an aversive one. They were placed in a novel context (fear conditioning box), exposed to a white noise cue paired with a mild foot shock, and injected with TSA 2 hrs before training. Fear learning was assessed 24 hrs later by measuring freezing behavior—the absence of all movement except for that necessitated by breathing—in response to representation of the context. We found no difference in the freezing behavior among the 4 groups of mice during the training phase of the fear conditioning (F3,47=0.02997, p=0.9929, n=12-13/group; FIG. 18). Twenty-four hours later, we found a decreased freezing behavior in vehicle-treated APP/PS1 mice compared to vehicle-treated WT littermates in the analysis of the contextual learning (F3,47=[…], p=0.0280, n=12-13/group; FIG. 18).
Freezing in vehicle-treated APP/PS1 mice was about 46% that of vehicle-treated WT mice [vehicle-treated APP/PS1 mice: 14.88±2.97% vs. vehicle-treated WT littermates: 31.68±5.32%; n=13 (11 females plus 2 males) and n=13 (11 females plus 2 males), respectively; t=2.76, p=0.0109; FIG. 18]. […] We next tested cued fear conditioning, a hippocampus-independent task [B46] […] (herein incorporated by reference in its entirety).

SMILES | IC50 (HDAC8) [µM] | % Activity (HDAC8; OA2 Log[nM] 0.5) | % Activity (HDAC8; OA2 Log[nM] 1.5) [%] | % Activity (HDAC8; OA2 Log[nM] 2.0) [%] | % Activity (HDAC8; OA2 Log[nM] 3.0) [%] | % Activity (HDAC8; OA2 Log[nM] 3.5) [%] | % Activity (HDAC8; OA2 Log[nM] 4.5) | % Activity (HDAC8; OA2 Log[nM] 5.3) | H4 acetylation in hippocampus of APP/PS1 mice (acetylated H4; TSA 2 mg/kg i.p. 2 hours prior to fear conditioning, 1 hour after training) | H4 acetylation levels in WT mice (acetylated H4; TSA 2 mg/kg i.p., vs vehicle-treated WT) | contextual fear memory deficit in APP/PS1 mice (APP/PS1 mice; TSA i.p. 2 hrs before training) | freezing time relative to vehicle-treated APP/PS1 mice (APP/PS1 mice; TSA-treated APP/PS1 mice, 2 mg/Kg i.p.) | freezing, contextual fear conditioning 24 hrs after training (APP/PS1 mice; TSA-treated APP/PS1 mice, 2 mg/Kg i.p. 2 hrs before training) [%] | freezing, contextual fear conditioning 24 hrs after training (APP/PS1 mice; TSA-treated WT mice, 2 mg/Kg i.p.) [%] | cued fear conditioning, freezing among the 4 groups (APP/PS1 mice; pre-CS and CS)
CCOc1cccc(OCCN(C)C)c1C(=O)Nc1ccc(Cl)c(C(F)(F)F)c1 [YF2] | > 200 | 101.88% and 103.15% | 102.04 | 108.80 | 84.45 | 109.88 | 85.17% and 86.60% | 58.33% and 105.63% |  |  |  |  |  |  | 
CC(/C=C/C(=O)NO)=C\[C@@H](C)C(=O)c1ccc(N(C)C)cc1 [TSA, trichostatin A] |  |  |  |  |  |  |  |  | enhanced; also recorded: rescued; also recorded: enhancement | increased | improved memory; also recorded: ameliorates | about 236.27% | 35.15±6.99 | 36.95±6.43 | did not find a difference
